From ChEMBL document CHEMBL3297661, “1-Substituted-5-[(3,5-dinitrobenzyl)sulfanyl]-1H-tetrazoles and their isosteric analogs: A new class of selective antitubercular agents active against drug-susceptible and multidrug-resistant mycobacteria” (Eur J Med Chem, 2014)
≈ marks a conversion by molar mass, not a printed value.

System: Mycobacterium avium
Experiment: Antimycobacterial activity against Mycobacterium avium CNCTC My 330/88 after 21 days by micromethod
Type: functional
Conditions: CNCTC My 330/88, 504 h

SMILES	MIC [µM]
O=[N+]([O-])c1cc(CSc2nnnn2Cc2ccccc2)cc([N+](=O)[O-])c1	250 (≈ 93.1 µg/mL)

System: Staphylococcus epidermidis
Experiment: Antibacterial activity against Staphylococcus epidermidis H 6966/08 after 48 hrs by broth microdilution method
Type: functional
Conditions: H 6966/08, 48 h

SMILES	IC95 [µM]
O=[N+]([O-])c1cc(CSc2nnnn2Cc2ccccc2)cc([N+](=O)[O-])c1	> 500

System: Mycobacterium kansasii
Experiment: Antimycobacterial activity against Mycobacterium kansasii 6509/96 after 14 days by micromethod
Type: functional
Conditions: 6509/96, 336 h

SMILES	MIC [µM]
O=[N+]([O-])c1cc(CSc2nnnn2Cc2ccccc2)cc([N+](=O)[O-])c1	4 (≈ 1.49 µg/mL)

System: Lichtheimia corymbifera
Experiment: Antifungal activity against Absidia corymbifera 272 after 48 hrs by broth microdilution method
Type: functional, organism-based
Conditions: Lichtheimia corymbifera, 272, 48 h

SMILES	IC50 [µM]
O=[N+]([O-])c1cc(CSc2nnnn2Cc2ccccc2)cc([N+](=O)[O-])c1	> 500

System: Mycobacterium tuberculosis
Experiment: Antimycobacterial activity against Mycobacterium tuberculosis CNCTC My 331/88 after 21 days by micromethod
Type: functional
Conditions: CNCTC My 331/88, 504 h

SMILES	MIC [µM]
O=[N+]([O-])c1cc(CSc2nnnn2Cc2ccccc2)cc([N+](=O)[O-])c1	2 (≈ 0.745 µg/mL)

System: not listed separately
Experiment: Cytotoxicity against MDCK2 cells assessed as cell viability at 30 uM after 48 hrs by MTT assay
Type: cell-based, Canis lupus familiaris, MDCK-II
Conditions: dog, read-out: Activity

SMILES	viability at 48 h, 30 µM [%]
O=[N+]([O-])c1cc(CSc2nnnn2Cc2ccccc2)cc([N+](=O)[O-])c1	87

System: Staphylococcus epidermidis
Experiment: Antibacterial activity against Staphylococcus epidermidis H 6966/08 after 24 hrs by broth microdilution method
Type: functional
Conditions: H 6966/08, 24 h

SMILES	IC95 [µM]
O=[N+]([O-])c1cc(CSc2nnnn2Cc2ccccc2)cc([N+](=O)[O-])c1	> 500

System: Staphylococcus aureus
Experiment: Antibacterial activity against methicillin-resistant Staphylococcus aureus H 5996/08 after 24 hrs by broth microdilution method
Type: functional
Conditions: H 5996/08, 24 h

SMILES	IC95 [µM]
O=[N+]([O-])c1cc(CSc2nnnn2Cc2ccccc2)cc([N+](=O)[O-])c1	> 500

System: Trichosporon asahii
Experiment: Antifungal activity against Trichosporon asahii 1188 after 48 hrs by broth microdilution method
Type: functional
Conditions: Trichosporon asahii, 1188, 48 h

SMILES	IC80 [µM]
O=[N+]([O-])c1cc(CSc2nnnn2Cc2ccccc2)cc([N+](=O)[O-])c1	> 500

System: Nakaseomyces glabratus
Experiment: Antifungal activity against Candida glabrata 20/I after 24 hrs by broth microdilution method
Type: functional
Conditions: not given

SMILES	IC80 [µM]
O=[N+]([O-])c1cc(CSc2nnnn2Cc2ccccc2)cc([N+](=O)[O-])c1	> 500

System: Staphylococcus aureus
Experiment: Antibacterial activity against Staphylococcus aureus ATCC 6538 after 24 hrs by broth microdilution method
Type: functional
Conditions: ATCC 6538, 24 h

SMILES	IC95 [µM]
O=[N+]([O-])c1cc(CSc2nnnn2Cc2ccccc2)cc([N+](=O)[O-])c1	> 500

System: Mycobacterium kansasii
Experiment: Antimycobacterial activity against Mycobacterium kansasii CNCTC My 235/80 after 7 days by micromethod
Type: functional
Conditions: CNCTC My 235/80, 168 h

SMILES	MIC [µM]
O=[N+]([O-])c1cc(CSc2nnnn2Cc2ccccc2)cc([N+](=O)[O-])c1	2 (≈ 0.745 µg/mL)

System: Nakaseomyces glabratus
Experiment: Antifungal activity against Candida glabrata 20/I after 48 hrs by broth microdilution method
Type: functional
Conditions: not given

SMILES	IC80 [µM]
O=[N+]([O-])c1cc(CSc2nnnn2Cc2ccccc2)cc([N+](=O)[O-])c1	> 500

System: Pseudomonas aeruginosa
Experiment: Antibacterial activity against Pseudomonas aeruginosa ATCC 9027 after 48 hrs by broth microdilution method
Type: functional
Conditions: ATCC 9027, 48 h

SMILES	IC95 [µM]
O=[N+]([O-])c1cc(CSc2nnnn2Cc2ccccc2)cc([N+](=O)[O-])c1	> 500

System: Escherichia coli
Experiment: Antibacterial activity against Escherichia coli ATCC 8739 after 48 hrs by broth microdilution method
Type: functional
Conditions: ATCC 8739, ATCC 8739, 48 h

SMILES	IC95 [µM]
O=[N+]([O-])c1cc(CSc2nnnn2Cc2ccccc2)cc([N+](=O)[O-])c1	> 500

System: Aspergillus fumigatus
Experiment: Antifungal activity against Aspergillus fumigatus 231 after 48 hrs by broth microdilution method
Type: functional, organism-based
Conditions: Aspergillus fumigatus, 231, 48 h

SMILES	IC50 [µM]
O=[N+]([O-])c1cc(CSc2nnnn2Cc2ccccc2)cc([N+](=O)[O-])c1	> 500

System: Staphylococcus aureus
Experiment: Antibacterial activity against methicillin-resistant Staphylococcus aureus H 5996/08 after 48 hrs by broth microdilution method
Type: functional
Conditions: H 5996/08, 48 h

SMILES	IC95 [µM]
O=[N+]([O-])c1cc(CSc2nnnn2Cc2ccccc2)cc([N+](=O)[O-])c1	> 500

System: not listed separately
Experiment: Cytotoxicity against human HuH7 cells assessed as cell viability at 30 uM after 48 hrs by MTT assay
Type: cell-based, Huh-7
Conditions: read-out: Activity

SMILES	viability at 48 h, 30 µM [%]
O=[N+]([O-])c1cc(CSc2nnnn2Cc2ccccc2)cc([N+](=O)[O-])c1	112

System: not listed separately
Experiment: Cytotoxicity against human HeLa cells assessed as cell viability at 30 uM after 48 hrs by MTT assay
Type: cell-based
Conditions: read-out: Activity

SMILES	viability at 48 h, 30 µM [%]
O=[N+]([O-])c1cc(CSc2nnnn2Cc2ccccc2)cc([N+](=O)[O-])c1	91

System: Candida albicans
Experiment: Antifungal activity against Candida albicans ATCC 44859 after 48 hrs by broth microdilution method
Type: functional
Conditions: ATCC 44859, 48 h

SMILES	IC80 [µM]
O=[N+]([O-])c1cc(CSc2nnnn2Cc2ccccc2)cc([N+](=O)[O-])c1	> 500

System: Klebsiella pneumoniae
Experiment: Antibacterial activity against extended spectrum beta-lactamase producing Klebsiella pneumoniae J 14368/08 after 48 hrs by broth microdilution method
Type: functional
Conditions: J 14368/08, 48 h

SMILES	IC95 [µM]
O=[N+]([O-])c1cc(CSc2nnnn2Cc2ccccc2)cc([N+](=O)[O-])c1	> 500

System: Mycobacterium avium
Experiment: Antimycobacterial activity against Mycobacterium avium CNCTC My 330/88 after 14 days by micromethod
Type: functional
Conditions: CNCTC My 330/88, 336 h

SMILES	MIC [µM]
O=[N+]([O-])c1cc(CSc2nnnn2Cc2ccccc2)cc([N+](=O)[O-])c1	250 (≈ 93.1 µg/mL)

System: Candida albicans
Experiment: Antifungal activity against Candida albicans ATCC 44859 after 24 hrs by broth microdilution method
Type: functional
Conditions: ATCC 44859, 24 h

SMILES	IC80 [µM]
O=[N+]([O-])c1cc(CSc2nnnn2Cc2ccccc2)cc([N+](=O)[O-])c1	> 500

System: Mycobacterium tuberculosis
Experiment: Antimycobacterial activity against Mycobacterium tuberculosis CNCTC My 331/88 after 14 days by micromethod
Type: functional
Conditions: CNCTC My 331/88, 336 h

SMILES	MIC [µM]
O=[N+]([O-])c1cc(CSc2nnnn2Cc2ccccc2)cc([N+](=O)[O-])c1	1 (≈ 0.372 µg/mL)

System: Pichia kudriavzevii
Experiment: Antifungal activity against Candida krusei E28 after 48 hrs by broth microdilution method
Type: functional
Conditions: E28, 48 h

SMILES	IC80 [µM]
O=[N+]([O-])c1cc(CSc2nnnn2Cc2ccccc2)cc([N+](=O)[O-])c1	> 500
